# Reference: US10807992B2, “Single enantiomer antiparasitic compounds” (priority 2017, dated 2020)
# Where two headings read alike, the source gives them in different places.
# Experiment: Dog PK study of C1 (S) enantiomer, single oral dose, plasma and whole blood by chiral LC-MS/MS
# Assay type: in vivo, beagle dogs
# Conditions: for AUC(0-t): read-out: NCA AUC0-last; for AUC(0-inf): read-out: NCA AUC0-∞
# Protocol: This study assessed the in vivo pharmacokinetic (PK) behavior of a single oral dose of the C1 (S) enantiomer in beagle dogs (Charles River study# 20104466). Solutions of C1 (S) enantiomer were dosed by oral gavage (10mg/kg) to a group of dogs (n=3). Blood samples were collected pre-dose and at 0.25, 0.5, 1, 2, 4, and 8 hours following dosing on Day 1. Blood samples were also collected on Days1, 2, 3, 5, 7, 10, 14, 17, 21, 25, 28, 32, 35, 39, 43, and 45. A portion of each whole blood sample was processed to plasma. Test article concentrations in plasma and whole blood were determined using liquid chromatography tandem mass spectrometry (LC-MS/MS).
# Calibration curves were constructed by spiking racemic 1-[6-[5-(3,5-dichloro-4-fluoro-phenyl)-5-(trifluoromethyl)-4H-isothiazol-3-yl]spiro[1H-isobenzofuran-3,3′-azetidine]-1′-yl]-3,3,3-trifluoro-propan-1-one into aliquots of blank K2EDTA beagle plasma or whole blood (Bioreclamation, Westbury, N.Y.) at the following nominal concentrations: 5, 10, 20, 50, 100, 200, 500, 1000, 2000, 5000, and 10000 ng/mL. Quality control samples (QCs) were prepared in the same manner at the following concentrations: 15, 30, 150, 800, 1600, 4000, and 8000 ng/mL.
# Samples (double blanks, blank+IS, blank+drug, standards, QC samples, and study samples) were extracted using a protein precipitation procedure. A 50 μL aliquot of plasma or blood was transferred into a deep well 96-well plate. To the sample aliquot, 250 μL of an internal standard (IS) solution for plasma or 300 μL for blood was added. The internal standard solution contained Afoxolaner at 50 ng/mL in methanol. For double blanks and blank+drug, neat methanol instead of IS was added. The 96-well plate was capped, shaken for ten minutes, and centrifuged at 5000 relative centrifugal force (RCF) for 10 minutes at 15° C. A 150-200 μL aliquot of the resulting supernatant of each sample was transferred to a clean, 96-well microtiter plate. The microtiter plate was capped and subjected to LC-MS/MS analysis.
# The LC-MS/MS system consisted of a Leap autosampler, an Agilent 1100 series liquid chromatography pump, and a SciexAPI4000 mass spectrometer operated in triple quadrupole mode. A ChiralPak IA column (4.6×150mm, 5μm particle, Supplier Daicel PN 80324)at room temperature was used with water as mobile phase A and neat acetonitrile as mobile phase B. The LC gradient, MS parameters, and gas parameters are shown in the tables 2-4, respectively.
# The mass spectrometer (MS) was operated in negative Turbo IonSpray™ mode with Multiple Reaction Monitoring (MRM).
# Following LC-MS/MS analysis, peak area ratios were calculated (analyte peak area divided by internal standard peak area). Standard curves were created by generating least squares fitting plots of peak area ratio versus nominal concentration. Sample concentrations were calculated from the results of the least squares fits.
# Cmax and Tmax are the observed maximum drug concentration and the time at which the maximum concentration occurs, respectively. Area under the curve (AUC) was calculated using the linear trapezoid method. To calculate half-lives (t1/2), a least squares regression was performed on a log concentration (C) versus time (t) plot (semi-log plot) to obtain the slope, k. The t1/2 is equal to 0.693/k. The t1/2 was calculated using data points in the elimination phase. For oral PK, Cl/F=Dose/AUC.
# In this report, PK calculations were normalized to the measured dose solution concentrations. Note that in all figures and tables below, the nominal dose is listed.
# [1] = dog, plasma, Beagle, oral 10 mg/kg, read-out: Plasma Concentration
# [2] = dog, whole blood, Beagle, oral 10 mg/kg, read-out: Blood Concentration
# [3] = dog, plasma, Beagle, oral gavage 10 mg/kg
# [4] = dog, whole blood, Beagle, oral gavage 10 mg/kg
# [5] = plasma, Beagle, oral gavage 10 mg/kg, 10 mg/kg
# [6] = same dose level, beagle vs. mongrels
smiles,measurement,setting,value
"O=C(CC(F)(F)F)N1CC2(C1)OCc1cc(C3=NS[C@@](c4cc(Cl)c(F)c(Cl)c4)(C(F)(F)F)C3)ccc12 [C1 (S) enantiomer, (S)-1-[6-[5-(3,5-dichloro-4-fluoro-phenyl)-5-(trifluoromethyl)-4H-isothiazol-3-yl]spiro[1H-isobenzofuran-3,3′-azetidine]-1′-yl]-3,3,3-trifluoro-propan-1-one]",Blood Concentration,"1080 hr, Beagle, oral 10 mg/kg",BQL ^b
same,concentration in plasma relative to blood concentration,after 240 hours,about twice the blood concentration
same,concentrations in blood and plasma compared,at 48 hours,similar
same,average half-life compared with the racemate,beagle PK study vs. racemate oral efficacy studies in mongrels,shorter than that of the racemate
same,Tmax,"beagle, dog, plasma, po, 10 mg/kg, plasma, Beagle, oral gavage 10 mg/kg, read-out: Tmax",2 h
same,CL/F,"beagle, dog, plasma, po, 10 mg/kg, oral gavage 10 mg/kg",0.833 mL/min/kg
same,Tmax,"beagle, dog, whole blood, po, 10 mg/kg, whole blood, Beagle, oral gavage 10 mg/kg, read-out: Tmax",1.7 h
same,CL/F,"beagle, dog, whole blood, po, 10 mg/kg, oral gavage 10 mg/kg",1.12 mL/min/kg
same,bioconversion to the C1 (R) enantiomer in vivo,"chiral HPLC chromatograms of all study samples, dog",No bioconversion was observed
same,concentration at 1080 hr,"dog, in vivo, 1080 hr, Beagle, oral 10 mg/kg",15.7 ± 6.3 ng/mL
same,concentration at 0.25 hr,[1],291 ± 57 ng/mL
same,concentration at 0.5 hr,[1],1170 ± 250 ng/mL
same,concentration at 1 hr,[1],1920 ± 330 ng/mL
same,concentration at 2 hr,[1],2260 ± 170 ng/mL
same,concentration at 4 hr,[1],2010 ± 360 ng/mL
same,concentration at 8 hr,[1],1110 ± 70 ng/mL
same,concentration at 24 hr,[1],664 ± 112 ng/mL
same,concentration at 48 hr,[1],567 ± 95 ng/mL
same,concentration at 72 hr,[1],552 ± 65 ng/mL
same,concentration at 120 hr,[1],393 ± 67 ng/mL
same,concentration at 168 hr,[1],298 ± 39 ng/mL
same,concentration at 240 hr,[1],270 ± 19 ng/mL
same,concentration at 336 hr,[1],219 ± 24 ng/mL
same,concentration at 408 hr,[1],135 ± 12 ng/mL
same,concentration at 504 hr,[1],103 ± 15 ng/mL
same,concentration at 600 hr,[1],80.4 ± 11.3 ng/mL
same,concentration at 672 hr,[1],55.6 ± 12.2 ng/mL
same,concentration at 768 hr,[1],47 ± 11.9 ng/mL
same,concentration at 840 hr,[1],37.4 ± 8.2 ng/mL
same,concentration at 936 hr,[1],24.8 ± 6.4 ng/mL
same,concentration at 1032 hr,[1],18.8 ± 5.5 ng/mL
same,concentration at 0.25 hr,[2],412 ± 89 ng/mL
same,concentration at 0.5 hr,[2],1660 ± 380 ng/mL
same,concentration at 1 hr,[2],3210 ± 230 ng/mL
same,concentration at 2 hr,[2],3560 ± 570 ng/mL
same,concentration at 4 hr,[2],2990 ± 340 ng/mL
same,concentration at 8 hr,[2],1220 ± 170 ng/mL
same,concentration at 24 hr,[2],708 ± 162 ng/mL
same,concentration at 48 hr,[2],572 ± 128 ng/mL
same,concentration at 72 hr,[2],428 ± 71 ng/mL
same,concentration at 120 hr,[2],292 ± 56 ng/mL
same,concentration at 168 hr,[2],245 ± 47 ng/mL
same,concentration at 240 hr,[2],136 ± 20 ng/mL
same,concentration at 336 hr,[2],100 ± 6 ng/mL
same,concentration at 408 hr,[2],75.8 ± 11.2 ng/mL
same,concentration at 504 hr,[2],57.3 ± 8.5 ng/mL
same,concentration at 600 hr,[2],41.2 ± 3.7 ng/mL
same,concentration at 672 hr,[2],30.5 ± 5.1 ng/mL
same,concentration at 768 hr,[2],21.5 ± 4.2 ng/mL
same,concentration at 840 hr,[2],17.4 ± 4.8 ng/mL
same,concentration at 936 hr,[2],14.3 ± 3.4 ng/mL
same,concentration at 1032 hr,[2],13.8 ng/mL
same,half-life,[3],205 h
same,Cmax,"dog, plasma, Beagle, oral gavage 10 mg/kg, read-out: Cmax",2260 ng/mL
same,AUC(0-t),[3],191 µg·h/mL
same,AUC(0-inf),[3],196 µg·h/mL
same,half-life,[4],209 h
same,Cmax,"dog, whole blood, Beagle, oral gavage 10 mg/kg, read-out: Cmax",3650 ng/mL
same,AUC(0-t),[4],144 ± 11 µg·h/mL
same,AUC(0-inf),[4],148 µg·h/mL
same,blood concentrations compared with plasma concentrations,first few hours post-dose,significantly higher than the corresponding plasma concentrations
same,affinity to red blood cells (RBC),initial phase post-dose,higher initial affinity to red blood cells (RBC)
same,tlast,"plasma, Beagle, oral gavage 10 mg/kg",1080 h
same,Cl/F,[5],0.84 ± 0.0467 mL/min/kg
same,Cmax,[5],2260 ± 170 ng/mL
same,NCA AUC0-last,[5],191 ± 11 µg·h/mL
same,AUC compared with the racemate,[6],lower compared to those of the racemate
same,Cmax compared with the racemate,[6],lower compared to those of the racemate
same,Tmax,"whole blood, Beagle, oral gavage 10 mg/kg, 10 mg/kg",1.67 ± 0.58 h
